# In the supplement of paper PMC4862054:
# Experiments:
# Settings in all cases: incubation time: 72 h
# [1] = test system: MDA-MB-436; test: normalised response (% of control), CellTox Green; higher = less cell death (100 = DMSO, 0 = benzethonium chloride kill control)
# How it was run: (§1)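 Breast cancer cell lines, seeded at 20 µl suspension per well, were incubated for 72 h in 384-well plates containing compound at 5 concentrations. These concentrations rose in 10-fold steps over a 10,000-fold range set for each compound. CellTox Green fluorescence (485/520 nm) was read, then CellTiter-Glo luminescence after 10 min at room temperature, and each plate was normalised to 0.1 % DMSO (100) and a positive kill control (0). Values are normalised signals, each at one concentration.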
# [2] = test system: HCC1937; test: as above
# How it was run: as §1
# [3] = test system: CAL-85-1; test: as above
# How it was run: as §1
# [4] = test system: MDA-MB-231; test: as above
# How it was run: as §1
# [5] = test system: MDA-MB-468; test: as above
# How it was run: as §1
# [6] = test system: BT-549; test: as above
# How it was run: as §1
# [7] = test system: CAL-120; test: as above
# How it was run: as §1
# [8] = test system: DU-4475; test: as above
# How it was run: as §1
# [9] = test system: HDQ-P1; test: as above
# How it was run: as §1
# [10] = test system: MFM-223; test: as above
# How it was run: as §1
# [11] = test system: BT-474; test: as above
# How it was run: as §1
# [12] = test system: HCC1143; test: as above
# How it was run: as §1
# [13] = test system: Hs578T; test: as above
# How it was run: as §1
# [14] = test system: HCC1599; test: as above
# How it was run: as §1
# [15] = test system: MCF-10A; test: as above
# How it was run: as §1
# [16] = test system: MDA-MB-453; test: as above
# How it was run: as §1
# [17] = test system: CAL-51; test: as above
# How it was run: as §1
# [18] = test system: MDA-MB-436; test: normalised response (% of control), CellTiter-Glo; higher = more viable cells (100 = DMSO, 0 = benzethonium chloride kill control)
# Experimental: (§2)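 DSRT, 72 h incubation, CellTox Green / CellTiter-Glo readout. Signal is normalised to DMSO and benzethonium chloride controls. Value is the normalised response at dose 3.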
# [19] = test system: HCC1937; test: as above
# Experimental: as §2
# [20] = test system: CAL-85-1; test: as above
# Experimental: as §2
# [21] = test system: MDA-MB-231; test: as above
# Experimental: as §2
# [22] = test system: MDA-MB-468; test: as above
# Experimental: as §2
# [23] = test system: SK-BR-3; test: as above
# Experimental: as §2
# [24] = test system: BT-549; test: as above
# Experimental: as §2
# [25] = test system: CAL-120; test: as above
# Experimental: as §2
# [26] = test system: CAL-148; test: as above
# Experimental: as §2
# [27] = test system: DU-4475; test: as above
# Experimental: as §2
# [28] = test system: HDQ-P1; test: as above
# Experimental: as §2
# [29] = test system: MFM-223; test: as above
# Experimental: as §2
# [30] = test system: BT-474; test: as above
# Experimental: as §2
# [31] = test system: HCC1143; test: as above
# Experimental: as §2
# [32] = test system: Hs578T; test: as above
# Experimental: as §2
# [33] = test system: HCC1599; test: as above
# Experimental: as §2
# [34] = test system: MCF-10A; test: as above
# Experimental: as §2
# [35] = test system: MDA-MB-453; test: as above
# Experimental: as §2
# [36] = test system: CAL-51; test: as above
# Experimental: as §2
# [37] = test system: CAL-148; test: normalised response (% of control), CellTox Green; higher = less cell death (100 = DMSO, 0 = benzethonium chloride kill control)
# How it was run: as §1
SMILES,normalised response [1],normalised response [2],normalised response [3],normalised response [4],normalised response [5],normalised response [6],normalised response [7],normalised response [8],normalised response [9],normalised response [10],normalised response [11],normalised response [12],normalised response [13],normalised response [14],normalised response [15],normalised response [16],normalised response [17],normalised response [18],normalised response [19],normalised response [20],normalised response [21],normalised response [22],normalised response [23],normalised response [24],normalised response [25],normalised response [26],normalised response [27],normalised response [28],normalised response [29],normalised response [30],normalised response [31],normalised response [32],normalised response [33],normalised response [34],normalised response [35],normalised response [36],normalised response [37]
CC[C@@H]1C(=O)N(C)c2cnc(Nc3ccc(C(=O)NC4CCN(C)CC4)cc3OC)nc2N1C1CCCC1 [BI 2536] (10 nM),51.6%,116%,65.3%,10.1%,56.6%,-328%,88.2%,97.5%,55.5%,73%,78.1%,97.8%,89.4%,101%,64.3%,101%,51.3%,44.2%,84.8%,43.9%,51.4%,37.3%,15.6%,37%,70.5%,55.6%,85.2%,78.4%,44.3%,74.3%,55.7%,83.9%,92.6%,82.4%,70.5%,67.2%,–
C=CC(=O)Nc1cc2c(Nc3ccc(F)c(Cl)c3)ncnc2cc1OCCCN1CCOCC1 [Canertinib] (100 nM),107%,108%,72.3%,107%,136%,75.7%,97.6%,105%,51.8%,99.3%,84.4%,94.3%,109%,114%,106%,102%,98.2%,96.6%,84.5%,69.1%,103%,76.6%,46.4%,93.9%,99.5%,97.5%,102%,70.9%,99.1%,95.3%,95.7%,97.4%,85.5%,43.9%,91.9%,60.2%,104%
O=C(O)C1(C(=O)O)CCC1.[NH2-].[NH2-].[Pt+2] [Carboplatin] (100 nM),103%,75.2%,108%,101%,61.5%,78.9%,104%,105%,88.8%,96.8%,103%,89.6%,95.5%,100%,86.2%,97.6%,90.7%,103%,94.2%,98%,100%,93.9%,105%,93%,99.1%,102%,99.5%,99%,99.2%,102%,101%,99.9%,87.6%,107%,94.7%,93.7%,103%
COc1cc2c(Oc3ccc4[nH]c(C)cc4c3F)ncnc2cc1OCCCN1CCCC1 [Cediranib] (10 nM),103%,119%,90.9%,106%,138%,104%,95.1%,97.7%,108%,106%,96.3%,101%,111%,113%,88.3%,107%,109%,101%,99.5%,107%,105%,104%,104%,113%,103%,108%,104%,100%,107%,103%,102%,110%,88.5%,97.9%,107%,92.7%,105%
Cc1ccc(-c2cc(C(F)(F)F)nn2-c2ccc(S(N)(=O)=O)cc2)cc1 [Celecoxib] (100 nM),71.4%,106%,101%,93.2%,89.2%,90.5%,102%,101%,101%,98.7%,99.5%,98.9%,96.8%,95.6%,102%,104%,111%,97.4%,94%,97.6%,101%,98.9%,102%,100%,103%,95.4%,103%,94.7%,104%,99%,104%,111%,98.1%,97.8%,110%,110%,95.4%
O=C(/C=C/c1cccnc1)NCCCCC1CCN(C(=O)c2ccccc2)CC1 [Daporinad] (10 nM),93.7%,101%,105%,95.4%,106%,–,100%,101%,105%,84.7%,95.6%,58.3%,21.9%,101%,96%,105%,112%,105%,42.5%,44.6%,91.5%,1.06%,103%,102%,56.2%,115%,30.4%,74.4%,5.44%,97%,45.2%,18.4%,4.73%,41.6%,21.1%,115%,96.1%
Nc1ncn([C@H]2C[C@H](O)[C@@H](CO)O2)c(=O)n1 [Decitabine] (100 nM),90.2%,91.4%,104%,91.8%,89.8%,–,90.5%,97.5%,56.6%,107%,94.3%,105%,109%,106%,105%,95.8%,76%,96.5%,93.2%,97.3%,105%,52.5%,91.2%,92.2%,99.4%,93.1%,94.9%,94.9%,104%,103%,104%,104%,113%,101%,107%,82.4%,106%
Nc1nc(F)nc2c1ncn2[C@@H]1O[C@H](CO)[C@@H](O)[C@@H]1O [Fludarabine] (100 nM),101%,116%,101%,116%,131%,–,101%,105%,101%,104%,99.6%,119%,99.5%,108%,98.4%,108%,109%,101%,98.3%,101%,119%,113%,108%,102%,101%,107%,106%,98.8%,111%,106%,102%,107%,122%,113%,120%,94.1%,107%
C=CC(=O)N1CCC[C@@H](n2nc(-c3ccc(Oc4ccccc4)cc3)c3c(N)ncnc32)C1 [Ibrutinib] (10 nM),100%,118%,95.8%,110%,92.8%,87%,98.7%,101%,107%,100%,96.3%,114%,93.2%,107%,63.2%,77.9%,112%,103%,94.2%,99.5%,108%,98.4%,67.4%,99.8%,106%,109%,100%,89%,110%,104%,105%,106%,105%,102%,87.3%,113%,84.5%
